Data taken from ChEMBL document CHEMBL1201862, “PubChem BioAssay data set” (2004).
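Where inhibition never reached the appropriate level, the endpoint shown equals the highest concentration tested. Otherwise, values were interpolated linearly from a five-concentration, 48-hour dose response in 96-well plates. Abbreviation: GI50, concentration required for 50% inhibition of growth.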 The source made the active and inactive calls. Cut-off read from the data, not from the text of the source: active = GI50 up to about 1.1 µM and inactive = higher.

What was measured:
Assay in all cases: NCI tumour cell line growth inhibition, 48 h
UACC-62 = tested on: UACC-62
HOP-18 = tested on: HOP-18
COLO 205 = tested on: COLO 205
SNB-19 = tested on: SNB-19
NCI-H23 = tested on: NCI-H23
U-251 = tested on: U-251
SNB-75 = tested on: SNB-75
SN12C = tested on: SN12C
RPMI-8226 = tested on: RPMI-8226
KM12 = tested on: KM12
SF-295 = tested on: SF-295
786-0 = tested on: 786-0
OVCAR-8 = tested on: OVCAR-8
CCRF-CEM = tested on: CCRF-CEM
A549 = tested on: A549
OVCAR-3 = tested on: OVCAR-3
KM-20L2 = tested on: KM-20L2
SK-MEL-5 = tested on: SK-MEL-5
M14 = tested on: M14
DLD-1 = tested on: DLD-1
RXF 393 = tested on: RXF 393
DMS-273 = tested on: DMS-273
SW-620 = tested on: SW-620
HCC 2998 = tested on: HCC 2998
SNB-78 = tested on: SNB-78
OVCAR-4 = tested on: OVCAR-4
NCI-H460 = tested on: NCI-H460
SK-OV-3 = tested on: SK-OV-3
OVCAR-5 = tested on: OVCAR-5
M19-MEL = tested on: M19-MEL
HCT-15 = tested on: HCT-15
HT-29 = tested on: HT-29
SF-539 = tested on: SF-539
DMS-114 = tested on: DMS-114
HOP-62 = tested on: HOP-62
HL-60 = tested on: HL-60
IGROV-1 = tested on: IGROV-1
SK-MEL-28 = tested on: SK-MEL-28
EKVX = tested on: EKVX
HOP-92 = tested on: HOP-92
Malme-3M = tested on: Malme-3M
K562 = tested on: K562
RXF 631 = tested on: RXF 631
SR = tested on: SR
TK-10 = tested on: TK-10
CAKI-1 = tested on: CAKI-1
SF-268 = tested on: SF-268
LXFL 529 = tested on: LXFL 529
UACC-257 = tested on: UACC-257
LOX IMVI = tested on: LOX IMVI
HCT-116 = tested on: HCT-116
NCI-H522 = tested on: NCI-H522
SK-MEL-2 = tested on: SK-MEL-2
MOLT-4 = tested on: MOLT-4
A498 = tested on: A498
ACHN = tested on: ACHN
UO-31 = tested on: UO-31
NCI-H226 = tested on: NCI-H226
XF498 = tested on: XF498

Measured: GI50

Cc1nc(N)nc(N)c1CCCCc1ccccc1
inactive: UACC-62 5.28 µM | HOP-18 42.1 µM | COLO 205 8.43 µM | SNB-19 32.4 µM | NCI-H23 4.29 µM | U-251 11.2 µM | SNB-75 47 µM | SN12C 22.6 µM | RPMI-8226 20.8 µM | KM12 18.1 µM | SF-295 6.65 µM | 786-0 4.52 µM | OVCAR-8 8.2 µM | CCRF-CEM 3.72 µM | A549 3.67 µM | OVCAR-3 9.95 µM | KM-20L2 10.8 µM | SK-MEL-5 4.39 µM | M14 6.21 µM | DLD-1 6.15 µM | RXF 393 11.1 µM | DMS-273 4.7 µM | SW-620 13.7 µM | HCC 2998 10.7 µM | SNB-78 35.3 µM | OVCAR-4 58.6 µM | NCI-H460 3.32 µM | SK-OV-3 31.9 µM | OVCAR-5 6.93 µM | M19-MEL 12.4 µM | HT-29 2.47 µM | SF-539 10.7 µM | DMS-114 5.02 µM | HOP-62 13.6 µM | HL-60 4.55 µM | IGROV-1 5.41 µM | SK-MEL-28 > 10 µM | EKVX 20 µM | HOP-92 22.5 µM | Malme-3M 13.3 µM | RXF 631 11.9 µM | SR 13.3 µM | TK-10 43.2 µM | CAKI-1 23.4 µM | SF-268 11 µM | LXFL 529 9.89 µM | UACC-257 10.2 µM | LOX IMVI 5.83 µM | HCT-116 5.21 µM | NCI-H522 10.2 µM | SK-MEL-2 16.7 µM | MOLT-4 5.3 µM | A498 18.2 µM | ACHN 9.2 µM | UO-31 19.4 µM
5.97 µM: HCT-15
active: K562 0.841 µM

O=[N+]([O-])c1ccc(C2=Nn3cnnc3SC2)o1
inactive: UACC-62 > 10 µM | SNB-19 29 µM | NCI-H23 > 10 µM | U-251 16.3 µM | SNB-75 25.3 µM | SN12C 16.5 µM | RPMI-8226 14.6 µM | KM12 18.3 µM | SF-295 18.3 µM | NCI-H226 26.4 µM | 786-0 17.3 µM | OVCAR-8 20.1 µM | CCRF-CEM 23 µM | A549 20.6 µM | OVCAR-3 17.1 µM | SK-MEL-5 16.4 µM | M14 15.1 µM | DLD-1 19.6 µM | RXF 393 18.4 µM | DMS-273 17.6 µM | SW-620 12.2 µM | HCC 2998 15.8 µM | SNB-78 22.2 µM | OVCAR-4 > 10 µM | NCI-H460 10.6 µM | SK-OV-3 > 10 µM | OVCAR-5 22.2 µM | M19-MEL 4.02 µM | HT-29 11.3 µM | SF-539 17.6 µM | DMS-114 10.8 µM | HOP-62 38.2 µM | HL-60 14.8 µM | IGROV-1 > 10 µM | SK-MEL-28 16.6 µM | HOP-92 26.1 µM | Malme-3M > 10 µM | K562 21.5 µM | RXF 631 12.1 µM | SR 16.7 µM | TK-10 39.7 µM | CAKI-1 > 10 µM | SF-268 19.6 µM | LXFL 529 13.6 µM | XF498 16.6 µM | UACC-257 15.5 µM | LOX IMVI 2.06 µM | HCT-116 14 µM | NCI-H522 > 10 µM | SK-MEL-2 20.9 µM | MOLT-4 20 µM | A498 16.3 µM | ACHN 15.8 µM | UO-31 21.4 µM
12 µM: HCT-15

CC(=O)/C=C\C(=O)NNS(=O)(=O)c1ccc(C)cc1
inactive: UACC-62 > 100 µM | COLO 205 > 100 µM | SNB-19 > 100 µM | NCI-H23 > 100 µM | U-251 > 100 µM | SNB-75 > 100 µM | SN12C > 100 µM | RPMI-8226 > 100 µM | KM12 > 100 µM | SF-295 > 100 µM | NCI-H226 > 100 µM | 786-0 > 100 µM | OVCAR-8 > 100 µM | CCRF-CEM > 100 µM | A549 > 100 µM | OVCAR-3 > 100 µM | KM-20L2 > 100 µM | SK-MEL-5 > 100 µM | M14 > 100 µM | DLD-1 > 100 µM | RXF 393 > 100 µM | DMS-273 > 100 µM | SW-620 > 100 µM | HCC 2998 > 100 µM | SNB-78 > 100 µM | OVCAR-4 > 100 µM | NCI-H460 > 100 µM | SK-OV-3 > 100 µM | OVCAR-5 > 100 µM | M19-MEL > 100 µM | HT-29 > 100 µM | SF-539 > 100 µM | HOP-62 > 100 µM | HL-60 > 100 µM | IGROV-1 > 100 µM | SK-MEL-28 > 100 µM | EKVX > 100 µM | HOP-92 > 100 µM | Malme-3M > 100 µM | K562 > 100 µM | RXF 631 > 100 µM | SR > 100 µM | TK-10 > 100 µM | CAKI-1 > 100 µM | SF-268 > 100 µM | LXFL 529 > 100 µM | XF498 > 100 µM | UACC-257 > 100 µM | LOX IMVI > 100 µM | HCT-116 > 100 µM | NCI-H522 > 100 µM | SK-MEL-2 > 100 µM | MOLT-4 > 100 µM | A498 > 100 µM | ACHN > 100 µM | UO-31 > 100 µM
> 100 µM: HCT-15
